According to US20240343740A1, “MACROCYCLIC GLUCAGON-LIKE PEPTIDE 1 RECEPTOR AGONISTS” (Eli Lilly and Company, priority 2021, published 2024):
Values belong to the compound of their own block, whether it stands above or below them.

How the values were obtained:
human GLP-1R [1] = target: T1, human GLP-1R (Homo sapiens, UniProt P43220); experiment: Human GLP-1 Receptor HEK293 cell cAMP assay, 581 fmol/mg GLP-1R expression density; type: cell-based; set-up: expressed in transfected cells; host or cells: HEK293 clonal cell line; settings: HEK293 cell line with 581 fmol/mg expression density of GLP-1R; for EC50: geometric mean, read-out: EC50 nM (SEM, n), intracellular cAMP response, relative EC50; for Emax: percent of maximal response to GLP-1(7-36)NH2, arithmetic mean, read-out: Emax % (SEM, n), intracellular cAMP response
T1 sequence (P43220 24-463): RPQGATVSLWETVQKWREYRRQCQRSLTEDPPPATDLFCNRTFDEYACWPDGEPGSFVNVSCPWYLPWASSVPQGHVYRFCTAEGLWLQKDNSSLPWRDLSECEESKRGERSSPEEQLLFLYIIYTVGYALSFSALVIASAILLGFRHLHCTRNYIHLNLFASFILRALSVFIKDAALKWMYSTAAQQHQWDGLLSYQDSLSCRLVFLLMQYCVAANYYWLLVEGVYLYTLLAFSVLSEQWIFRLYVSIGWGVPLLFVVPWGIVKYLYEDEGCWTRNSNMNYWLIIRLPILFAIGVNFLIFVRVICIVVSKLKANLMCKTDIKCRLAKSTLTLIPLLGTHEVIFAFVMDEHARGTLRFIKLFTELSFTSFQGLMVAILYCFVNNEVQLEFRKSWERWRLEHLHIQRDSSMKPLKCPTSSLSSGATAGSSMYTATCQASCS
Summary of the method: (§1)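 HEK293 clonal lines expressing human GLP-1R, 20-point compound curves, 30 min at 37° C in DMEM with 0.1% casein, 250 μM IBMX, 0.5% DMSO. cAMP by HTRF, converted via standard curve to % of maximal human GLP-1(7-36)NH2 response; relative EC50 and Emax from four-parameter logistic fit.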

human GLP-1R [2] = target: T1, human GLP-1R; experiment: Human GLP-1 Receptor HEK293 cell cAMP assay, 104 fmol/mg GLP-1R expression density; type: cell-based; set-up: expressed in transfected cells; host or cells: HEK293 clonal cell line; settings: HEK293 cell line with 104 fmol/mg expression density of GLP-1R; for EC50: geometric mean, read-out: EC50 nM (SEM, n), intracellular cAMP response, relative EC50; for Emax: percent of maximal response to GLP-1(7-36)NH2, arithmetic mean, read-out: Emax % (SEM, n), intracellular cAMP response
Summary of the method: as §1

SMILES: COc1cc(C(=O)O)cc2c1nc(Cc1ccc3cc1COCCc1cc(C#N)ccc1COc1ccnc-3n1)n2C[C@@H]1CCO1 [Example 51, (S)-2-((5^4-Cyano-3,8-dioxa-2(2,4)-pyrimidina-1(1,3),5(1,2)-dibenzenacyclononaphane-1^4-yl)methyl)-4-methoxy-1-(oxetan-2-ylmethyl)-1H-benzo[d]imidazole-6-carboxylic acid]
EC50 (human GLP-1R [1]): 41 nM
Emax (human GLP-1R [1]): 96.7%
EC50 (human GLP-1R [2]): 152 nM
Emax (human GLP-1R [2]): 77.1%

SMILES: COCCOc1cc(C(=O)O)cc2c1nc(Cc1cc(F)c3cc1COCCc1cc(ccc1C#N)COc1cccc-3n1)n2C[C@@H]1CCO1 [Example 58, (S)-2-((5^4-Cyano-1^6-fluoro-3,8-dioxa-2(2,6)-pyridina-1,5(1,3)-dibenzenacyclononaphane-1^4-yl)methyl)-4-(2-methoxyethoxy)-1-(oxetan-2-ylmethyl)-1H-benzo[d]imidazole-6-carboxylic acid]
EC50 (human GLP-1R [1]): 0.633 nM
Emax (human GLP-1R [1]): 109%
EC50 (human GLP-1R [2]): 1.62 nM
Emax (human GLP-1R [2]): 90%

SMILES: CCn1cncc1Cn1c(Cc2ccc3cc2OCCCc2cc(C#N)ccc2COc2cccc-3n2)nc2c(OC)cc(C(=O)O)cc21 [Example 63, 2-((5^4-Cyano-3,9-dioxa-2(2,6)-pyridina-1(1,3),5(1,2)-dibenzenacyclononaphane-1^4-yl)methyl)-1-((1-ethyl-1H-imidazol-5-yl)methyl)-4-methoxy-1H-benzo[d]imidazole-6-carboxylic acid]
EC50 (human GLP-1R [1]): 29.9 nM
Emax (human GLP-1R [1]): 101%
EC50 (human GLP-1R [2]): 112 nM
Emax (human GLP-1R [2]): 81.1%

SMILES: COCCOc1cc(C(=O)O)cc2c1nc(Cc1ccc3cc1COCCc1cc(ccc1C#N)COc1cccc-3n1)n2C[C@@H]1CCO1 [Example 65, (S)-2-((5^4-Cyano-3,8-dioxa-2(2,6)-pyridina-1,5(1,3)-dibenzenacyclononaphane-1^4-yl)methyl)-4-(2-methoxyethoxy)-1-(oxetan-2-ylmethyl)-1H-benzo[d]imidazole-6-carboxylic acid]
EC50 (human GLP-1R [1]): 1.86 nM
Emax (human GLP-1R [1]): 110%
EC50 (human GLP-1R [2]): 4.62 nM
Emax (human GLP-1R [2]): 98.2%

SMILES: O=C(O)c1ccc2nc(Cc3ccc4cc3OCCCc3cc(-n5cnc(F)c5)ccc3COc3cccc-4n3)n(C[C@@H]3CCO3)c2c1 [Example 66, (S)-2-((5^4-(4-Fluoro-1H-imidazol-1-yl)-3,9-dioxa-2(2,6)-pyridina-1(1,3),5(1,2)-dibenzenacyclononaphane-1^4-yl)methyl)-1-(oxetan-2-ylmethyl)-1H-benzo[d]imidazole-6-carboxylic acid]
EC50 (human GLP-1R [1]): 13.4 nM
Emax (human GLP-1R [1]): 118%
EC50 (human GLP-1R [2]): 54.5 nM
Emax (human GLP-1R [2]): 82.5%

SMILES: COCCOc1cc(C(=O)O)cc2c1nc(Cc1cc(F)c3cc1COCc1cc(Cl)ccc1COc1cccc-3n1)n2C[C@@H]1CCO1 [Example 67, (S)-2-((5^4-Chloro-1^6-fluoro-3,7-dioxa-2(2,6)-pyridina-1(1,3),5(1,2)-dibenzenacyclooctaphane-1^4-yl)methyl)-4-(2-methoxyethoxy)-1-(oxetan-2-ylmethyl)-1H-benzo[d]imidazole-6-carboxylic acid]
EC50 (human GLP-1R [1]): 2.13 nM
Emax (human GLP-1R [1]): 117%
EC50 (human GLP-1R [2]): 6.88 nM
Emax (human GLP-1R [2]): 91.6%

SMILES: COCCOc1cc(C(=O)O)cc2c1nc(Cc1cc(F)c3cc1COCc1cc(C#N)ccc1COc1cccc-3n1)n2C[C@@H]1CCO1 [Example 68, (S)-2-((5^4-Cyano-1^6-fluoro-3,7-dioxa-2(2,6)-pyridina-1(1,3),5(1,2)-dibenzenacyclooctaphane-1^4-yl)methyl)-4-(2-methoxyethoxy)-1-(oxetan-2-ylmethyl)-1H-benzo[d]imidazole-6-carboxylic acid]
EC50 (human GLP-1R [1]): 6.82 nM
Emax (human GLP-1R [1]): 115%
EC50 (human GLP-1R [2]): 8.72 nM
Emax (human GLP-1R [2]): 98.5%

Results, then the compound that gave them:

EC50 (human GLP-1R [1]): 58.4 nM
Emax (human GLP-1R [1]): 108%
EC50 (human GLP-1R [2]): 153 nM
Emax (human GLP-1R [2]): 84.3%
SMILES: COCCOc1cc(C(=O)O)cc2c1nc(Cc1ccc3cc1COCCc1cc(C(F)(F)F)ncc1COc1cccc-3n1)n2C[C@@H]1CCO1 [Example 52, (S)-4-(2-Methoxyethoxy)-1-(oxetan-2-ylmethyl)-2-((5^6-(trifluoromethyl)-3,8-dioxa-2(2,6),5(3,4)-dipyridina-1(1,3)-benzenacyclononaphane-1^4-yl)methyl)-1H-benzo[d]imidazole-6-carboxylic acid]

EC50 (human GLP-1R [1]): 77.8 nM
Emax (human GLP-1R [1]): 104%
EC50 (human GLP-1R [2]): 293 nM
Emax (human GLP-1R [2]): 58%
SMILES: Cc1nc(CCOc2cc(C(=O)O)cc3c2nc(Cc2ccc4cc2OCCCc2cc(C#N)ccc2COc2cccc-4n2)n3C[C@@H]2CCO2)co1 [Example 53, (S)-2-((5^4-Cyano-3,9-dioxa-2(2,6)-pyridina-1(1,3),5(1,2)-dibenzenacyclononaphane-1^4-yl)methyl)-4-(2-(2-methyloxazol-4-yl)ethoxy)-1-(oxetan-2-ylmethyl)-1H-benzo[d]imidazole-6-carboxylic acid]

EC50 (human GLP-1R [1]): 440 nM
Emax (human GLP-1R [1]): 49.5%
EC50 (human GLP-1R [2]): 654 nM
Emax (human GLP-1R [2]): 18.3%
SMILES: N#Cc1ccc2c(c1)CCCOc1cc(ccc1Cc1nc3c(OCCNCC(F)(F)F)cc(C(=O)O)cc3n1C[C@@H]1CCO1)-c1cccc(n1)OC2 [Example 54, (S)-2-((5^4-Cyano-3,9-dioxa-2(2,6)-pyridina-1(1,3),5(1,2)-dibenzenacyclononaphane-1^4-yl)methyl)-1-(oxetan-2-ylmethyl)-4-(2-((2,2,2-trifluoroethyl)amino)ethoxy)-1H-benzo[d]imidazole-6-carboxylic acid]

EC50 (human GLP-1R [1]): 8.94 nM
Emax (human GLP-1R [1]): 113%
EC50 (human GLP-1R [2]): 22.8 nM
Emax (human GLP-1R [2]): 84.8%
SMILES: O=C(O)c1cc(OCCO)c2nc(Cc3ccc4cc3COCCc3cc(Cl)ccc3COc3cccc-4n3)n(C[C@@H]3CCO3)c2c1 [Example 55, (S)-4-[2-Hydroxyethoxy]-2-((5^4-chloro-3,8-dioxa-2(2,6)-pyridina-1(1,3),5(1,2)-dibenzenacyclononaphane-1^4-yl)methyl)-1-(oxetan-2-ylmethyl)-1H-benzo[d]imidazole-6-carboxylic acid]

EC50 (human GLP-1R [1]): 55.8 nM
Emax (human GLP-1R [1]): 85%
EC50 (human GLP-1R [2]): 131 nM
Emax (human GLP-1R [2]): 41.7%
SMILES: CN(C)CCOc1cc(C(=O)O)cc2c1nc(Cc1ccc3cc1COCCc1cc(Cl)ccc1COc1cccc-3n1)n2C[C@@H]1CCO1 [Example 56, (S)-2-((5^4-Chloro-3,8-dioxa-2(2,6)-pyridina-1(1,3),5(1,2)-dibenzenacyclononaphane-1^4-yl)methyl)-4-(2-(dimethylamino)ethoxy)-1-(oxetan-2-ylmethyl)-1H-benzo[d]imidazole-6-carboxylic acid]

EC50 (human GLP-1R [1]): 440 nM
Emax (human GLP-1R [1]): 76.2%
EC50 (human GLP-1R [2]): 1030 nM
Emax (human GLP-1R [2]): 42.1%
SMILES: CNCCOc1cc(C(=O)O)cc2c1nc(Cc1ccc3cc1COCCc1cc(Cl)ccc1COc1cccc-3n1)n2C[C@@H]1CCO1 [Example 57, (S)-2-((5^4-Chloro-3,8-dioxa-2(2,6)-pyridina-1(1,3),5(1,2)-dibenzenacyclononaphane-1^4-yl)methyl)-4-(2-(methylamino)ethoxy)-1-(oxetan-2-ylmethyl)-1H-benzo[d]imidazole-6-carboxylic acid]

EC50 (human GLP-1R [1]): 262 nM
Emax (human GLP-1R [1]): 90.9%
EC50 (human GLP-1R [2]): 515 nM
Emax (human GLP-1R [2]): 48.4%
SMILES: CN1CCC(Oc2cc(C(=O)O)cc3c2nc(Cc2ccc4cc2OCCCc2cc(C#N)ccc2COc2cccc-4n2)n3C[C@@H]2CCO2)C1 (stereo partly drawn) [Example 59, 2-((5^4-Cyano-3,9-dioxa-2(2,6)-pyridina-1(1,3),5(1,2)-dibenzenacyclononaphane-1^4-yl)methyl)-4-((1-methylpyrrolidin-3-yl)oxy)-1-(((S)-oxetan-2-yl)methyl)-1H-benzo[d]imidazole-6-carboxylic acid]

EC50 (human GLP-1R [1]): 18.1 nM
Emax (human GLP-1R [1]): 110%
EC50 (human GLP-1R [2]): 79.1 nM
Emax (human GLP-1R [2]): 93.2%
SMILES: N#Cc1ccc2c(c1)CCOCc1cc(ccc1Cc1nc3c(F)cc(C(=O)O)cc3n1C[C@@H]1CCO1)-c1cccc(n1)OC2 [Example 61, (S)-2-((5^4-cyano-3,8-dioxa-2(2,6)-pyridina-1(1,3),5(1,2)-dibenzenacyclononaphane-1^4-yl)methyl)-4-fluoro-1-(oxetan-2-ylmethyl)-1H-benzo[d]imidazole-6-carboxylic acid]

EC50 (human GLP-1R [1]): 285 nM
Emax (human GLP-1R [1]): 62.2%
EC50 (human GLP-1R [2]): 737 nM
Emax (human GLP-1R [2]): 32.9%
SMILES: CN(C)C(=O)COc1cc(C(=O)O)cc2c1nc(Cc1ccc3cc1OCCCc1cc(C#N)ccc1COc1cccc-3n1)n2C[C@@H]1CCO1 [Example 62, (S)-2-((5^4-Cyano-3,9-dioxa-2(2,6)-pyridina-1(1,3),5(1,2)-dibenzenacyclononaphane-1^4-yl)methyl)-4-(2-(dimethylamino)-2-oxoethoxy)-1-(oxetan-2-ylmethyl)-1H-benzo[d]imidazole-6-carboxylic acid]

EC50 (human GLP-1R [1]): 2.13 nM
Emax (human GLP-1R [1]): 110%
EC50 (human GLP-1R [2]): 5.53 nM
Emax (human GLP-1R [2]): 87.3%
SMILES: COCCOc1cc(C(=O)O)cc2c1nc(Cc1ccc3cc1COCCc1cc(C#N)ccc1COc1cccc-3n1)n2C[C@@H]1CCO1 [Example 64, (S)-2-((5^4-Cyano-3,8-dioxa-2(2,6)-pyridina-1(1,3),5(1,2)-dibenzenacyclononaphane-1^4-yl)methyl)-4-(2-methoxyethoxy)-1-(oxetan-2-ylmethyl)-1H-benzo[d]imidazole-6-carboxylic acid]
